From patent US20250179022A1, “COMPOUND USED AS TYK2 INHIBITOR, PREPARATION METHOD THEREFOR, AND PHARMACEUTICAL USE THEREOF” (SHANGHAI ZHIGEN PHARMACEUTICAL & TECHNOLOGY CO. LTD., priority 2022, published 2025)
pIC50: −log10 of the molar value.

What was measured:
Type in all cases: cell-based
JAK1 = biological target: T1, JAK1 (Homo sapiens, UniProt P23458, cells depend on it, form not given); test: JAK family kinase selectivity assay, Ba/F3-TEL-JAK1 cell proliferation; conditions: Ba/F3-TEL-JAK1, 72 h; read-out: Ba/F3 Cell IC50 JAK1
T1 construct: fused on or other part: N-terminal part of TEL (ETV6) as oligomerising partner; P41212 (Transcription factor ETV6)
T1 sequence (P23458 875-1154 limits assumed, change not shown): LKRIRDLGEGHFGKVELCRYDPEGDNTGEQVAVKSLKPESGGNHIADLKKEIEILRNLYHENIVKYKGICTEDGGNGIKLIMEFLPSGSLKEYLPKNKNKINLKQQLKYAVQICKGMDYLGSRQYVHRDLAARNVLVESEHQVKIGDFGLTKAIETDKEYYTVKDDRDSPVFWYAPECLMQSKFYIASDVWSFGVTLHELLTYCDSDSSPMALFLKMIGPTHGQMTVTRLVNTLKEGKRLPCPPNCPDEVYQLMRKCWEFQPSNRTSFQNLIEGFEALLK
Source text: (§1) There are four kinases in the JAK family, respectively TYK2, JAK1, JAK2 and JAK3. JAK family kinase genes were introduced into the wild-type murine B lymphocytes (BaF3), and four BaF3 engineered cell lines were constructed respectively (Ba/F3-FL-TYK2-E957D, Ba/F3-TEL-JAK1, Ba/F3-TEL-JAK2, Ba/F3-TEL-JAK3). The growth and proliferation of these engineered cell lines were not dependent on IL-3, but on exogenously transferred JAK family kinases.
In this experiment, the inhibitory effects of the compounds on the proliferation of four cell types, Ba/F3-FL-TYK2-E957D, Ba/F3-TEL-JAK1, Ba/F3-TEL-JAK2, and Ba/F3-TEL-JAK3 were tested, and apoptosis was detected, and the IC50 values were calculated. The inhibitory activities of the compounds against TYK2, JAK1, JAK2, and JAK3 kinases were evaluated based on the IC50 value, thus assessing the JAK family kinase selectivity of the compounds. […]
Cells (provided by Sundia Pharmaceutical Technology (Shanghai) Co., Ltd.) were resuspended and counted using an automated cell counter. […]
(§2) The cell plate was equilibrated to room temperature. […] Detected with SpectraMax Paradigm.
(§3) • (1) IC50 was calculated using GraphPad Prism 5. • (2) % Inh=(Max signal-Compound signal)/(Max signal-Min signal)×100. • (3) Max signal was the positive control well with only the same volume of DMSO as the compound. • (4) Min signal was the negative control well with only the culture medium.

JAK2 = biological target: T2, JAK2 (Homo sapiens, UniProt O60674, cells depend on it, form not given); test: JAK family kinase selectivity assay, Ba/F3-TEL-JAK2 cell proliferation; conditions: Ba/F3-TEL-JAK2, 72 h; read-out: Ba/F3 Cell IC50 JAK2
T2 construct: fused on or other part: N-terminal part of TEL (ETV6) as oligomerising partner; it is the second protein of the fusion and part of the key; P41212 (Transcription factor ETV6)
T2 sequence (O60674 849-1132 limits assumed, change not shown): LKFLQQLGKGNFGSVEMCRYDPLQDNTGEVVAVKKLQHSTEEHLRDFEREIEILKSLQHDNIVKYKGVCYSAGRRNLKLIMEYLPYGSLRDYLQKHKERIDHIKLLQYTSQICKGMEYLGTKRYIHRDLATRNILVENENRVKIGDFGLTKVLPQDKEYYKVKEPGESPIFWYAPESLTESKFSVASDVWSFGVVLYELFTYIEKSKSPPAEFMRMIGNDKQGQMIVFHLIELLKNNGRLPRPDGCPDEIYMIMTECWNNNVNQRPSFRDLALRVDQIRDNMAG
Source text: as §1
In this experiment, the inhibitory effects of the compounds on the proliferation of four cell types, Ba/F3-FL-TYK2-E957D, Ba/F3-TEL-JAK1, Ba/F3-TEL-JAK2, and Ba/F3-TEL-JAK3 were tested, and apoptosis was detected, and the IC50 values were calculated. The inhibitory activities of the compounds against TYK2, JAK1, JAK2, and JAK3 kinases were evaluated based on the IC50 value, thus assessing the JAK family kinase selectivity of the compounds.
The tested compounds, powder and stored at room temperature, were prepared into 10 mM stock solution with DMSO and stored at −20° C. away from light for use.
Compounds were formulated into dilute solutions which was 1000 times of the final concentration. The compound was prepared into 20-times of final concentration by diluting the compound with culture medium. 2 ul of 1000-times compound was added per well to 98 ul of culture medium.
Cells (provided by Sundia Pharmaceutical Technology (Shanghai) Co., Ltd.) were resuspended and counted using an automated cell counter. The cell suspension was diluted to the desired density based on BaF3 seeding density of 2000 cells per well. Each well was plated with 95 ul of cells and incubated at 37° C. for stable equilibrium. […]
as §2, §3

hERG potassium channel = biological target: T3, hERG potassium channel (Homo sapiens, UniProt Q12809); test: hERG potassium channel inhibition assay (CHO-hERG cells, Qpatch automated patch clamp); conditions: highest tested concentration 40 μM
T3 construct: expressed in transfected cells; host or cells: CHO
T3 sequence (Q12809 whole entry): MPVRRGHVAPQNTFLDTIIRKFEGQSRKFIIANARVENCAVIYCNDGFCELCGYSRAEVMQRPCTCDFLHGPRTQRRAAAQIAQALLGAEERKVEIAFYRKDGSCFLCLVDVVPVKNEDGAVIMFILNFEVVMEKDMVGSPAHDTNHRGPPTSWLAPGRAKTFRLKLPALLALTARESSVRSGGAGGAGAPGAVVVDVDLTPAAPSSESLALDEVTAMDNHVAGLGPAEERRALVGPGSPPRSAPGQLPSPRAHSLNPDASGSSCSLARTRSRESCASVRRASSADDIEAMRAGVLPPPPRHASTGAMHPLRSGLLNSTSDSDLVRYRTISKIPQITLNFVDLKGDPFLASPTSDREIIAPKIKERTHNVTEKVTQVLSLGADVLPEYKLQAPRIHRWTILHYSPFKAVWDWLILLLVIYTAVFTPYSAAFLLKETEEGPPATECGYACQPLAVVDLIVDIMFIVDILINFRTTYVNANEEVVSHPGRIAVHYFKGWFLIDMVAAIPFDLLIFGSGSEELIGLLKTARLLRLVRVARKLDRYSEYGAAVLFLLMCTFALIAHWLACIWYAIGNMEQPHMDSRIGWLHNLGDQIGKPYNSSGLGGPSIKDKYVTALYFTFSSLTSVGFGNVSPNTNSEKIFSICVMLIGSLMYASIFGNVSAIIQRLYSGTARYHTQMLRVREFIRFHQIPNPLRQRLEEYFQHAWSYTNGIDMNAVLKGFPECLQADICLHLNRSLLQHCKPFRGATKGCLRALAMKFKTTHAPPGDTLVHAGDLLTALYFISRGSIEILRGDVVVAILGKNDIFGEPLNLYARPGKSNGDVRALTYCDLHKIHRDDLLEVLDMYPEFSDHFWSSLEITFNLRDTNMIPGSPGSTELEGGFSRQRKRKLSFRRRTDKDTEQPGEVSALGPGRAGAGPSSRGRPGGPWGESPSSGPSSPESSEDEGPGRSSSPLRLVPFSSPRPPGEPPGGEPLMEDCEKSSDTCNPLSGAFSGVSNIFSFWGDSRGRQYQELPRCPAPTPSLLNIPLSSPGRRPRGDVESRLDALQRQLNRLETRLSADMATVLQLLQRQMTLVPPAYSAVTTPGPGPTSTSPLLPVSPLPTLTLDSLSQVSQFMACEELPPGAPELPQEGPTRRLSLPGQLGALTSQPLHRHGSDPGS
Method: 4.1 Purpose of the Experiment The blocking effect of the compounds in the present invention on hERG potassium currents on stable cell lines transfected with hERG potassium channels was tested by applying a fully automated membrane clamp.
CHO-hERG cells were cultured in 175 cm^2 culture flasks, and when the cell density grew to 60-80%, the culture medium was removed and washed with 7 ml of PBS (Phosphate Buffered Saline), and then 3 ml of Detachin was added for digestion.
When digestion was completed, 7 ml of culture medium was added to neutralize the cells, then centrifuged, the supernatant was removed, and 5 ml of culture medium was added to resuspend the cells to ensure that the cell density is 2-5×10^6/ml.
The single-cell high-impedance sealing and whole-cell pattern formation processes were all automated with the Qpatch instrument. After obtaining the recording pattern, the cells were clamped at −80 mV, and a −50 mV preconditioning voltage was given for 50 ms prior to giving a +40 mV depolarizing stimulus for 5 s. The cell was then repolarized to −50 mV to be maintained for 5 s and then returned to −80 mV. This voltage stimulus was applied every 15 s. […]
The experimental data was analyzed by XLFit software.

GI50 (JAK1) [nM]	GI50 (JAK2) [nM]	SMILES	pIC50 (hERG potassium channel)
> 1000	> 1000	[2H]C([2H])([2H])NC(=O)c1nnc(NC(=O)C2CC2)cc1Nc1nc(N)c(Cl)cc1[S@@](C)(=O)=NC [Example 28]	< 4.52
> 1000	> 1000	[2H]C([2H])([2H])NC(=O)c1nnc(NC(=O)C2CC2)cc1Nc1nc(N)c(Cl)cc1[S@](C)(=N)=O [Example 29, (R)-4-((6-amino-5-chloro-3-(S-methylsulfoximino)pyridin-2-yl)amino)-6-(cyclopropylcarboxamido)-N-(methyl-d3)pyridazine-3-carboxamide]	< 4.52
